These compounds were tested against Polθ protein (amino acids 2-2590) (Homo sapiens, UniProt O75417) (assay: Polθ full length enzyme potency assay (PicoGreen)). Details: Polθ IC50 (nM), full length N-His, C-term FLAG tagged Polθ, PicoGreen fluorescence, 12 point concentration response.
Sequence of Polθ protein (amino acids 2-2590) (O75417 2-2590): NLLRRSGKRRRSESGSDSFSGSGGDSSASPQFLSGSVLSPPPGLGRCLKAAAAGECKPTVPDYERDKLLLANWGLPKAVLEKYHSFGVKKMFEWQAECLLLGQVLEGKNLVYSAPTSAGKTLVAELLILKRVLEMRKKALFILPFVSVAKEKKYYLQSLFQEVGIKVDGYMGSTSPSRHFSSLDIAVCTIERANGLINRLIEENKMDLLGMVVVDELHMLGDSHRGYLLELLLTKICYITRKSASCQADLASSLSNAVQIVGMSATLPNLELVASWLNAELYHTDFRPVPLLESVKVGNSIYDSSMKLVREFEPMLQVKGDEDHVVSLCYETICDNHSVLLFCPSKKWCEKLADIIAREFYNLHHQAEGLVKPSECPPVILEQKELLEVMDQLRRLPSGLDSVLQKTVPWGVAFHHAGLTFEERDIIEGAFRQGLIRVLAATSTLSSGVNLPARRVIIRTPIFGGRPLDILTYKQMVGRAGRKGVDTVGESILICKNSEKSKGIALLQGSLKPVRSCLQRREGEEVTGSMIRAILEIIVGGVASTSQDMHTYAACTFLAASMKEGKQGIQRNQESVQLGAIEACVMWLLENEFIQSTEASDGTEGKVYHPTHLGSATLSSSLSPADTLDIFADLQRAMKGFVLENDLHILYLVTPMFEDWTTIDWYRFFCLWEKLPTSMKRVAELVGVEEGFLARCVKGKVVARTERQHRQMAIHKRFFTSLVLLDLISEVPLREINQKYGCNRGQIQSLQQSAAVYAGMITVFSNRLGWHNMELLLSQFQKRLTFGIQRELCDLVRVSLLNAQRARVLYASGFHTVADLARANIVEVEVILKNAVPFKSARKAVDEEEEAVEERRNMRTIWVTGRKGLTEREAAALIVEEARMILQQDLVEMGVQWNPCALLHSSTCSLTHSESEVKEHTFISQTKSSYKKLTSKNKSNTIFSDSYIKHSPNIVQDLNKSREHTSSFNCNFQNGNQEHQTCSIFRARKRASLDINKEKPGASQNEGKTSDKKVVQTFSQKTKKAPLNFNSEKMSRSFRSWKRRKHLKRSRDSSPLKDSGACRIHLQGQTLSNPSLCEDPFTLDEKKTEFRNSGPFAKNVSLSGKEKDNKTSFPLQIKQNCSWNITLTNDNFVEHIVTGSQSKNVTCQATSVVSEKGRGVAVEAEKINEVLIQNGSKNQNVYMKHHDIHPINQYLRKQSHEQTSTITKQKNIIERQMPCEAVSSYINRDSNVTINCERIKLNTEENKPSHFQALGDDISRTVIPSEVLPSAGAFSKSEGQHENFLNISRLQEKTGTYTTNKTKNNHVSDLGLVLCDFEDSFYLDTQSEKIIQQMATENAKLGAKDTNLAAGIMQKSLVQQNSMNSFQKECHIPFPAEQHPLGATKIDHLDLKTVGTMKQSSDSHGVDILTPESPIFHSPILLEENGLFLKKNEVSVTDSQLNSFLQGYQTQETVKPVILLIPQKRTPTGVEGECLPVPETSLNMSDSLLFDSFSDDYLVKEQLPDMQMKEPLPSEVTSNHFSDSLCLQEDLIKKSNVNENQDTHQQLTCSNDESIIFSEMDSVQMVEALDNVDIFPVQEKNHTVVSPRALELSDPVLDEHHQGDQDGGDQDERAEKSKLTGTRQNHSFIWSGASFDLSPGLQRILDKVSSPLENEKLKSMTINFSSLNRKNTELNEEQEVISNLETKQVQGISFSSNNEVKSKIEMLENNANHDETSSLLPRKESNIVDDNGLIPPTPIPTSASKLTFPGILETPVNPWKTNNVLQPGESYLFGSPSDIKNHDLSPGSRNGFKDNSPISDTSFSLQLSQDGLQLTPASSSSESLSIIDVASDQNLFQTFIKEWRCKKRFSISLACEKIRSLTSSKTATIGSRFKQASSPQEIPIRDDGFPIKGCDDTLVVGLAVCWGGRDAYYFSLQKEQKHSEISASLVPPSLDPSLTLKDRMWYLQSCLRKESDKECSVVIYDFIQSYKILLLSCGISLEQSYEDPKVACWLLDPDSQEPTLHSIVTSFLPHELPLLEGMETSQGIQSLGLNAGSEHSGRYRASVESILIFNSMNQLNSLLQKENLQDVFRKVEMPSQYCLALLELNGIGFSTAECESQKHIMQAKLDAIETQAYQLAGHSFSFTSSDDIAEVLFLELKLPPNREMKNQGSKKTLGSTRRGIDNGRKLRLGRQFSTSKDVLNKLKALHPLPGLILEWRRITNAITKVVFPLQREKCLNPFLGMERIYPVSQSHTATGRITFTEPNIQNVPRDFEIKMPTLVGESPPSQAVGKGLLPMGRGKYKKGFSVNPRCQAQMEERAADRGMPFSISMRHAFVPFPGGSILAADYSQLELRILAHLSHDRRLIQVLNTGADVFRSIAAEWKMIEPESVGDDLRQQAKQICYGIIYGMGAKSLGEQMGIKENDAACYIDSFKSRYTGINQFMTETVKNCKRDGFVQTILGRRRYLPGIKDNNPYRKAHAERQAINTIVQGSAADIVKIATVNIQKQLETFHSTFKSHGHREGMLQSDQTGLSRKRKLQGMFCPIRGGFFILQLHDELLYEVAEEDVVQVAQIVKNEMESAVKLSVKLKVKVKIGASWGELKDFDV
For CCN(C(=O)[C@@H]1C[C@H](N2CCOC(CO)C2)CN1c1nc(C)cc(C(F)(F)F)c1C#N)c1ccc(F)c(C)c1 (stereo partly drawn) [Example 150, (2S,4S)-1-(3-Cyano-6-methyl-4-(trifluoromethyl)pyridin-2-yl)-N-ethyl-N-(4-fluoro-3-methylphenyl)-4-(2-(hydroxymethyl)morpholino)pyrrolidine-2-carboxamide], the IC50 was 11 nM.
With CCN(C(=O)[C@@H]1C[C@H](N2CCOC(CO)C2)CN1c1nc(C)cc(C(F)(F)F)c1C#N)c1cccc(Cl)c1 (stereo partly drawn) [Example 147, (2S,4S)-N-(3-Chlorophenyl)-1-(3-cyano-6-methyl-4-(trifluoromethyl)pyridin-2-yl)-N-ethyl-4-(2-(hydroxymethyl)morpholino)pyrrolidine-2-carboxamide] the IC50 was 28 nM.
CCN(C(=O)[C@@H]1C[C@H](N)C(=O)N1c1cc(C(F)(F)F)cc(C)n1)c1ccc(F)c(Cl)c1 [Example 61, (2S,4S)-4-Amino-N-(3-chloro-4-fluorophenyl)-N-ethyl-1-(6-methyl-4-(trifluoromethyl)pyridin-2-yl)-5-oxopyrrolidine-2-carboxamide] was tested, and the IC50 was 136 nM.
In the case of Cc1cc(C(F)(F)F)cc(N2C(=O)[C@@H](O)[C@@H](O)[C@H]2C(=O)N(C)c2ccc3cnn(C)c3c2)n1 [Example 168, (2S,3S,4S)-3,4-Dihydroxy-N-methyl-N-(1-methyl-1H-indazol-6-yl)-1-(6-methyl-4-(trifluoromethyl)pyridin-2-yl)-5-oxopyrrolidine-2-carboxamide], the IC50 is reported as 71 nM.
Cc1cc(C(F)(F)F)cc(N2C(=O)NC[C@H]2C(=O)N(C)c2ccc(F)c(Cl)c2F)n1 [Example 158, (S)—N-(3-Chloro-2,4-difluorophenyl)-N-methyl-3-(6-methyl-4-(trifluoromethyl)pyridin-2-yl)-2-oxoimidazolidine-4-carboxamide] was tested, and the IC50 was 2 nM.
For CCN(C(=O)[C@@H]1COC(=O)N1c1cc(C(C)(F)F)cc(C)n1)c1ccc(F)c(Cl)c1 [Example 125, (S)—N-(3-Chloro-4-fluorophenyl)-3-(4-(1,1-difluoroethyl)-6-methylpyridin-2-yl)-N-ethyl-2-oxooxazolidine-4-carboxamide], the IC50 was 261 nM.
Cc1cccc(N(C)C(=O)[C@@H]2[C@H](O)CCN2c2nc(C)cc(C(F)(F)F)c2C#N)c1 [Example 24, (2S,3R)-1-(3-Cyano-6-methyl-4-(trifluoromethyl)pyridin-2-yl)-3-hydroxy-N-methyl-N-(m-tolyl)pyrrolidine-2-carboxamide] was tested, and the IC50 was 9 nM.
CCN(C(=O)[C@@H]1C[C@H](N2CC(O)C2)CN1c1cc(C(F)(F)F)cc(C)n1)c1ccc(F)c(F)c1 [Example 130, (2S,4S)-N-(3,4-Difluorophenyl)-N-ethyl-4-(3-hydroxyazetidin-1-yl)-1-(6-methyl-4-(trifluoromethyl)pyridin-2-yl)pyrrolidine-2-carboxamide] gave an IC50 of 100 nM.
CCN(C(=O)[C@@H]1C[C@H](N[C@@H]2CCOC[C@H]2O)CN1c1cc(C(F)(F)F)cc(C)n1)c1ccc(F)c(F)c1 [Example 131, (2S,4S)-N-(3,4-Difluorophenyl)-N-ethyl-4-(((3S,4R)-3-hydroxytetrahydro-2H-pyran-4-yl)amino)-1-(6-methyl-4-(trifluoromethyl)pyridin-2-yl)pyrrolidine-2-carboxamide] was tested, and the IC50 was 248 nM.
C=Cc1cc(C(F)(F)F)cc(N2C(=O)OC[C@H]2C(=O)N(C)c2ccc(F)c(Cl)c2)n1 [Example 114, (S)—N-(3-Chloro-4-fluorophenyl)-N-methyl-2-oxo-3-(4-(trifluoromethyl)-6-vinylpyridin-2-yl)oxazolidine-4-carboxamide] gave an IC50 of 46 nM.
Work on CCN(C)c1cc(C(F)(F)F)c(C#N)c(N2C[C@@H](O)C[C@H]2C(=O)N(C)c2cccc(C)c2)n1 [Example 31, (2S,4S)-1-(3-Cyano-6-(ethyl(methyl)amino)-4-(trifluoromethyl)pyridin-2-yl)-4-hydroxy-N-methyl-N-(m-tolyl)pyrrolidine-2-carboxamide] yielded an IC50 of 395 nM.
Cc1cc(C(F)(F)F)cc(N2C(=O)[C@@H](O)[C@@H](O)[C@H]2C(=O)N(C)c2ccc3c(n2)N(C)CCO3)n1 [Example 169, (2S,3S,4S)-3,4-Dihydroxy-N-methyl-N-(4-methyl-3,4-dihydro-2H-pyrido[3,2-b][1,4]oxazin-6-yl)-1-(6-methyl-4-(trifluoromethyl)pyridin-2-yl)-5-oxopyrrolidine-2-carboxamide] gave an IC50 of 106 nM.
Cc1cc(C(F)(F)F)cc(N2C(=O)N(CCN3CCS(=O)(=O)CC3)C[C@H]2C(=O)N(C)c2ccc(F)c(Cl)c2F)n1 [Example 208, (S)-N-(3-Chloro-2,4-difluorophenyl)-1-(2-(1,1-dioxidothiomorpholino)-ethyl)-N-methyl-3-(6-methyl-4-(trifluoromethyl)pyridin-2-yl)-2-oxoimidazolidine-4-carboxamide] showed an IC50 of 9 nM.
Cc1cc(C)c(C#N)c(N2C[C@@H](O)C[C@H]2C(=O)N(C)c2cccc(CF)c2)n1 [Example 11, (2S,4S)-1-(3-Cyano-4,6-dimethylpyridin-2-yl)-N-(3-(fluoromethyl)phenyl)-4-hydroxy-N-methylpyrrolidine-2-carboxamide] showed an IC50 of 452 nM.
Work on Cc1cc(C(F)(F)F)cc(N2C(=O)OC[C@H]2C(=O)N(C)c2ccc3cc[nH]c3c2)n1 [Example 126, (S)—N-(1H-Indol-6-yl)-N-methyl-3-(6-methyl-4-(trifluoromethyl)pyridin-2-yl)-2-oxooxazolidine-4-carboxamide] yielded an IC50 of 11 nM.
Cc1cc(C(F)(F)F)cc(N2C(=O)NC[C@H]2C(=O)N(c2ccc(F)c(Cl)c2)C(C)C)n1 [Example 179, (S)—N-(3-Chloro-4-fluorophenyl)-N-isopropyl-3-(6-methyl-4-(trifluoromethyl)pyridin-2-yl)-2-oxoimidazolidine-4-carboxamide] was tested, and the IC50 was 15 nM.
Work on CCN(C(=O)[C@@H]1C[C@H](N[C@H]2CN(C(=O)OC(C)(C)C)C[C@H]2O)CN1c1cc(C(F)(F)F)cc(C)n1)c1ccc(F)c(F)c1 [Example 136, tert-Butyl (3S,4R)-3-(((3S,5S)-5-((3,4-difluorophenyl)(ethyl)carbamoyl)-1-(6-methyl-4-(trifluoromethyl)pyridin-2-yl)pyrrolidin-3-yl)amino)-4-hydroxypyrrolidine-1-carboxylate] yielded an IC50 of 45 nM.
In the case of Cc1cc(C(F)(F)F)cc(N2C(=O)N(CCS(C)(=N)=O)C[C@H]2C(=O)N(C)c2ccc(F)c(Cl)c2F)n1 (stereo partly drawn) [Example 212, (4S)—N-(3-Chloro-2,4-difluorophenyl)-N-methyl-3-(6-methyl-4-(trifluoromethyl)pyridin-2-yl)-1-(2-(S-methylsulfonimidoyl)ethyl)-2-oxoimidazolidine-4-carboxamide], the IC50 is reported as 6 nM.
Compound Cc1cc(C(F)(F)F)cc(N2C(=O)OC[C@H]2C(=O)N(C)c2cccc(N(C)C)n2)n1 [Example 177, (S)—N-(6-(Dimethylamino)pyridin-2-yl)-N-methyl-3-(6-methyl-4-(trifluoromethyl)pyridin-2-yl)-2-oxooxazolidine-4-carboxamide] has an IC50 of 109 nM.
With Cc1cc(C(F)(F)F)cc(N2C(=O)NC[C@H]2C(=O)N(C)c2ccc3cc[nH]c3n2)n1 [Example 233, (S)—N-Methyl-3-(6-methyl-4-(trifluoromethyl)pyridin-2-yl)-2-oxo-N-(1H-pyrrolo[2,3-b]pyridin-6-yl)imidazolidine-4-carboxamide] the IC50 was 3 nM.
With CCN(C(=O)[C@@H]1C[C@H](NC2CNC2)CN1c1nc(C)cc(C)c1C#N)c1cccc(C)c1 [Example 51, (2S,4S)-4-(Azetidin-3-ylamino)-1-(3-cyano-4,6-dimethylpyridin-2-yl)-N-ethyl-N-(m-tolyl)pyrrolidine-2-carboxamide] the IC50 was 1560 nM.
Cc1cc(C(F)(F)F)c(C#N)c(N2C[C@@H](O)C[C@H]2C(=O)N(C)c2cc(F)c(F)cc2F)n1 [Example 20, (2S,4S)-1-(3-Cyano-6-methyl-4-(trifluoromethyl)pyridin-2-yl)-4-hydroxy-N-methyl-N-(2,4,5-trifluorophenyl)pyrrolidine-2-carboxamide] was tested, and the IC50 was 67 nM.
In the case of CCN(C(=O)[C@H]1C[C@@H](N(C)C2CCNC2)CN1c1nc(C)cc(C)c1C#N)c1cccc(C)c1 (stereo in doubt) [Example 48, (2R,4R)-1-(3-Cyano-4,6-dimethylpyridin-2-yl)-N-ethyl-4-(methyl(pyrrolidin-3-yl)amino)-N-(m-tolyl)pyrrolidine-2-carboxamide], the IC50 is reported as 573 nM.
In the case of CCN(C(=O)[C@@H]1C[C@H](O)CN1c1nc(C)cc(C)c1C#N)c1cccc(C)c1 [Example 21, (2S,4S)-1-(3-Cyano-4,6-dimethylpyridin-2-yl)-N-ethyl-4-hydroxy-N-(m-tolyl)pyrrolidine-2-carboxamide], the IC50 is reported as 77 nM.
With Cc1cc(C(F)(F)F)cc(N2C(=O)N(CCN3CCC3CO)C[C@H]2C(=O)N(C)c2ccc(F)c(Cl)c2F)n1 (stereo partly drawn) [Example 203, (4S)-N-(3-Chloro-2,4-difluoro-phenyl)-1-(2-(2-(hydroxymethyl)-azetidin-1-yl)-ethyl)-N-methyl-3-(6-methyl-4-(trifluoromethyl)pyridin-2-yl)-2-oxoimidazolidine-4-carboxamide] the IC50 was 10 nM.
Cc1cccc(N(C)C(=O)[C@@H]2C[C@H](O)CN2c2cc(C(C)C)cc(C)n2)c1 [Example 28, (2S,4S)-4-Hydroxy-1-(4-isopropyl-6-methylpyridin-2-yl)-N-methyl-N-(m-tolyl)pyrrolidine-2-carboxamide] gave an IC50 of 48 nM.
Cc1cc(C(F)(F)F)c(C#N)c(N2C[C@@H](O)C[C@H]2C(=O)N(C)c2ccc(C(F)(F)F)c(F)c2)n1 [Example 19, (2S,4S)-1-(3-Cyano-6-methyl-4-(trifluoromethyl)pyridin-2-yl)-N-(3-fluoro-4-(trifluoromethyl)-phenyl)-4-hydroxy-N-methyl-pyrrolidine-2-carboxamide] showed an IC50 of 524 nM.

Same assay, conditions: read-out: Polθ IC50; full length N-His, C-term FLAG tagged Polθ, PicoGreen fluorescence, 12 point concentration response
Cc1cc(C(F)(F)F)cc(N2C(=O)OC[C@H]2C(=O)N(C)c2cccc(Cl)c2F)n1 [Example 95, (S)-N-(3-Chloro-2-fluorophenyl)-N-methyl-3-(6-methyl-4-(trifluoromethyl)pyridin-2-yl)-2-oxooxazolidine-4-carboxamide] showed an IC50 of 15 nM.
